Results from US11452758B2, “Antimicrobial peptide derived from LL37 peptide and uses thereof” (INDUSTRY-ACADEMIC COOPERATION FOUNDATION, CHOSUN UNIVERSITY, priority 2018, dated 2022).
Converted amounts (≈) assume the structure as drawn. Where a SMILES comes first, the peptide text is derived from it.

Experiments:
[1] = Cytotoxicity in normal cell line (MTT); format: cell-based, human; conditions: human
Protocol: To determine the cytotoxicity of the peptides produced by the method of Example 1 in normal cell line, cytotoxicity was measured by using normal human keratinocyte cell line (HaCaT) and normal human fibroblast cell line (Hs27).
Specifically, normal human keratinocyte (HaCaT) cells and normal human fibroblast (Hs27) cells, which have been cultured in DMEM medium containing 10% FBS (fetal bovine serum), were aliquoted in a microtiter plate to have 1×10^4 cells per well. After culturing them for 24 hours, the cells were subjected to a treatment with LL37, LL37-1, LL37-2, LL37-3 or LL37-4 peptide, each at concentration of 0.5, 1, 2, 4, 8, 16 or 32 μM/well, followed by reaction for 24 hours in a 5% CO2 incubator. After culture, a reaction solution containing 5 mg/ml MTT (Thiazolyl Blue Tetrazolium Bromide) dissolved in phosphate buffered saline (PBS) was added in an amount of 10 μl to each well and the reaction was allowed to occur for 1 hour. After that, the supernatant was discarded, and, by dissolving MTT crystals that are formed by adding 200 μl DMSO (dimethyl sulfoxide), the absorbance at 570 nm was measured to determine the cell survival ability.

P. aeruginosa ATCC 27853 = format: cell-based, Pseudomonas aeruginosa; conditions: ATCC 27853, 18 h
Description: (§1) To compare the antimicrobial activity among the peptides produced by the method of Example 1, the inventors of the present invention measured the minimal growth inhibitory concentration (MIC), which is minimum concentration of the peptide not allowing any […] of bacterial cells.
(§2) Specifically, the bacterial strains described in the following Table 2 were purchased and cultured to a mid-log phase in MHB (Mueller Hinton Broth) medium. Then, after dilution to bacterial cell concentration of 2×10^5 cells/50 μl, the cells were inoculated to a microtiter plate (NUNC, USA). Thereafter, LL37-1, LL37-2, LL37-3 or LL37-4 peptide which has been synthesized in Example 1 above was subjected to serial dilution, ½ times for each, in a 96-well plate. After adding the peptides in an amount of 50 μl to the cell plate, the cells were cultured for 18 hours at 37° C. By using a microtiter plate reader (Merck Elisa reader, Germany), the absorbance was measured at a wavelength of 600 nm to determine the MIC value of each bacterial strain. As a control group, LL37 as a mother peptide was used and subjected to the same process as above to determine the MIC value of each strain.

E. coli ATCC 25922 = format: cell-based, Escherichia coli; conditions: ATCC 25922, 18 h
Description: as §1, §2

S. typhimurium KCTC 1925 = format: cell-based, Salmonella typhimurium; conditions: KCTC 1925, 18 h
Description: as §1, §2

A. baumannii #12 = format: cell-based, Acinetobacter baumannii; conditions: #12
Description: as §1, §2

A. baumannii #11 = format: cell-based, Acinetobacter baumannii; conditions: #11
Description: as §1, §2

A. baumannii #3 = format: cell-based, Acinetobacter baumannii; conditions: #3
Description: as §1, §2

A. baumannii #19 = format: cell-based, Acinetobacter baumannii; conditions: #19
Description: as §1, §2

A. baumannii #4 = format: cell-based, Acinetobacter baumannii; conditions: #4
Description: as §1, §2

A. baumannii #10 = format: cell-based, Acinetobacter baumannii; conditions: #10
Description: as §1, §2

A. baumannii #13 = format: cell-based, Acinetobacter baumannii; conditions: #13
Description: as §1, §2

A. baumannii KCTC 2508 = format: cell-based, Acinetobacter baumannii; conditions: KCTC 2508, 18 h
Description: as §1, §2

A. baumannii #9 = format: cell-based, Acinetobacter baumannii; conditions: #9
Description: as §1, §2

A. baumannii #5 = format: cell-based, Acinetobacter baumannii; conditions: #5
Description: as §1, §2

A. baumannii #2 = format: cell-based, Acinetobacter baumannii; conditions: #2
Description: as §1, §2

A. baumannii #8 = format: cell-based, Acinetobacter baumannii; conditions: #8
Description: as §1, §2

S. aureus ATCC 25923 = format: cell-based, Staphylococcus aureus; conditions: ATCC 25923, 18 h
Description: as §1, §2

[2] = test system: L. monocytogenes KCTC 3710; format: cell-based, Listeria monocytogenes; conditions: KCTC 3710, 18 h
Description: as §1, §2

## CC[C@H](C)[C@H](NC(=O)[C@H](CCCNC(=N)N)NC(=O)[C@H](CCC(N)=O)NC(=O)[C@@H](NC(=O)[C@@H](NC(=O)[C@H](CCCNC(=N)N)NC(=O)[C@H](CCCCN)NC(=O)[C@H](Cc1ccccc1)NC(=O)[C@H](CCC(=O)O)NC(=O)[C@@H](N)CCCCN)[C@@H](C)CC)C(C)C)C(=O)N[C@@H](CCCCN)C(=O)N[C@@H](CC(=O)O)C(=O)N[C@@H](Cc1ccccc1)C(=O)N[C@@H](CC(C)C)C(=O)N[C@@H](CCCNC(=N)N)C(=O)N[C@@H](CC(N)=O)C(N)=O [LL37-1, KEFKRIVQRIKDFLRN-NH2] (H-KEFKRIVQRIKDFLRN-NH2)
[1]; HaCaT keratinocyte cells
  viability at 24 h, 0.5 µM: 97%
  viability at 24 h, 1 µM: 103%
  viability at 24 h, 2 µM: 98%
  viability at 24 h, 4 µM: 99%
  viability at 24 h, 8 µM: 103%
  viability at 24 h, 16 µM: 101%
  viability at 24 h, 32 µM: 104%
[1]; Hs27 fibroblast cells
  viability at 24 h, 0.5 µM: 100%
  viability at 24 h, 1 µM: 100%
  viability at 24 h, 2 µM: 103%
  viability at 24 h, 4 µM: 95%
  viability at 24 h, 8 µM: 96%
  viability at 24 h, 16 µM: 92%
  viability at 24 h, 32 µM: 95%
P. aeruginosa ATCC 27853
  Minimal inhibitory concentration: 16 µM (≈ 33.4 µg/mL)
E. coli ATCC 25922
  Minimal inhibitory concentration: 128 µM (≈ 267 µg/mL)
S. typhimurium KCTC 1925
  Minimal inhibitory concentration: 32 µM (≈ 66.9 µg/mL)
A. baumannii #12
  Minimal inhibitory concentration: 8 µM (≈ 16.7 µg/mL)
A. baumannii #11
  Minimal inhibitory concentration: 4 µM (≈ 8.36 µg/mL)
A. baumannii #3
  Minimal inhibitory concentration: 8 µM (≈ 16.7 µg/mL)
A. baumannii #19
  Minimal inhibitory concentration: 8 µM (≈ 16.7 µg/mL)
A. baumannii #4
  Minimal inhibitory concentration: 8 µM (≈ 16.7 µg/mL)
A. baumannii #10
  Minimal inhibitory concentration: 4 µM (≈ 8.36 µg/mL)
A. baumannii #13
  Minimal inhibitory concentration: 4 µM (≈ 8.36 µg/mL)
A. baumannii KCTC 2508
  Minimal inhibitory concentration: 16 µM (≈ 33.4 µg/mL)
A. baumannii #9
  Minimal inhibitory concentration: 4 µM (≈ 8.36 µg/mL)
A. baumannii #5
  Minimal inhibitory concentration: 4 µM (≈ 8.36 µg/mL)
A. baumannii #2
  Minimal inhibitory concentration: 4 µM (≈ 8.36 µg/mL)
A. baumannii #8
  Minimal inhibitory concentration: 4 µM (≈ 8.36 µg/mL)
S. aureus ATCC 25923
  Minimal inhibitory concentration: 32 µM (≈ 66.9 µg/mL)
[2]
  Minimal inhibitory concentration: 128 µM (≈ 267 µg/mL)
